Measurements as given in patent US10221171B2, “Oxathiazole thiazolium Hsp 70 inhibitors” (THE REGENTS OF THE UNIVERSITY OF CALIFORNIA, priority 2015, dated 2019).
Where two headings read alike, the source gives them in different places.

Tests used:
Assay type in all cases: cell-based
[1] = system: MCF-7; assay: MTT cell viability assay, MCF-7; conditions: Homo sapiens, MTT, 72-hour incubation, read-out: IC50/μM MCF-7
Description: (§1) Cells were then treated with compound at various concentrations in 0.2 mL media. After the 72-hour incubation period, cells were washed in PBS (3×100 μL), and 10 μL MTT reagent was added with 100 μL fresh media. Cells were then incubated for 4 hr in a humidified chamber at 37° C. with 5% CO2. Insoluble formazan crystals were solubilized by addition of 0.1 mL detergent solution (4 hr at room temp., dark). Resulting colored solutions were then quantified at an absorbance of 570 nm.

[2] = system: MDA-MB-231; assay: MTT cell viability assay, MDA-MB-231; conditions: Homo sapiens
Description: as §1

[3] = system: MEF (C57BL/6); assay: MTT cell viability assay, MEF (C57BL/6); conditions: Mus musculus
Description: as §1

[4] = MTT, 72-hour incubation, read-out: IC50/μM MEF (C57BL/6)
[5] = MDA-MB-231, 72 h, 72-hour incubation

| Compound | IC50 ([1]; MCF7, 72 h) | IC50 ([2]; MDA-MB-231, 72-hour incubation) | IC50 [3, 4] | IC50 [2, 5] | IC50 ([1]; MCF7) | IC50 ([3]; 72 h, read-out: IC50/μM MEF (C57BL/6), MTT, 72-hour incubation) |
| --- | --- | --- | --- | --- | --- | --- |
| CCc1ccc2c(c1)S/C(=c1/s/c(=C\c3scc[n+]3Cc3c(Cl)cccc3Cl)n(CC)c1=O)N2C [JG-342] | 0.093 ± 0.007 µM | 0.1 ± 0.01 µM | 0.3 ± 0.1 µM | – | – | – |
| CCn1c(=O)/c(=C2\Sc3cc(OC)ccc3N2C)s/c1=C\c1scc[n+]1Cc1ccccc1 [JG-250] | 0.13 ± 0.01 µM | – | 2 ± 0.1 µM | 0.16 ± 0.01 µM | – | – |
| CCn1c(=O)/c(=C2\Sc3ccc(OC)cc3N2C)s/c1=C\c1scc[n+]1Cc1ccccc1OC [JG-404] | – | 0.3 ± 0.03 µM | 1.3 ± 0.1 µM | – | 0.79 ± 0.1 µM | – |
| CCn1c(=O)/c(=C2\SCCN2C)s/c1=C\c1scc[n+]1Cc1ccccc1 [JG-258] | – | > 20 µM | > 10 µM | – | > 5 µM | – |
| CCn1c(=O)/c(=C2\Sc3ccc(OC)cc3N2C)s/c1=C\c1scc[n+]1Cc1ccsc1C(=O)OC [JG-402] | – | 0.23 ± 0.01 µM | 0.82 ± 0.06 µM | – | 0.45 ± 0.04 µM | – |
| CCn1c(=O)/c(=C2\Sc3cc(OC)ccc3N2C)s/c1=C\c1scc[n+]1CCc1ccccc1C [JG-398] | – | 0.14 ± 0.01 µM | 1.1 ± 0.1 µM | – | 0.24 ± 0.02 µM | – |
| CCn1c(=O)/c(=C2\Sc3cc(C)ccc3N2C)s/c1=C\c1scc[n+]1CCc1ccc(C(F)(F)F)cc1 [JG-388] | – | 0.62 ± 0.07 µM | 1.6 ± 0.1 µM | – | 0.5 ± 0.04 µM | – |
| CCn1c(=O)/c(=C2\Sc3cc(SC)ccc3N2C)s/c1=C\c1scc[n+]1C(C)c1ccccc1 (stereo not drawn) [JG-321] | – | 0.14 ± 0.01 µM | 1.8 ± 0.1 µM | – | 0.23 ± 0.03 µM | – |
| CCn1c(=O)/c(=C2\Sc3cc(OC)ccc3N2C)s/c1=C\c1scc[n+]1Cc1ccccc1C(=O)OC [JG-351] | – | 0.11 ± 0.01 µM | 1.6 ± 0.1 µM | – | 0.14 ± 0.01 µM | – |
| CCn1c(=O)/c(=C2\Sc3cc(F)ccc3N2C)s/c1=C\c1scc[n+]1Cc1ccccc1Br [JG-308] | – | 0.19 ± 0.02 µM | 0.6 ± 0.06 µM | – | 0.16 ± 0.02 µM | – |
| CCc1ccc2c(c1)S/C(=c1/s/c(=C\c3scc[n+]3Cc3ccccc3C(F)(F)F)n(CC)c1=O)N2C [JG-298] | – | 0.11 ± 0.01 µM | 0.43 ± 0.02 µM | – | 0.052 ± 0.004 µM | – |
| CCn1c(=O)/c(=C2\Sc3ccc(OC)cc3N2C)s/c1=C\c1scc[n+]1Cc1ccccc1C(F)(F)F [JG-401] | – | 0.11 ± 0.01 µM | 0.27 ± 0.03 µM | – | 0.45 ± 0.04 µM | – |
| CCn1c(=O)/c(=C2\Sc3cc(Cl)ccc3N2C)s/c1=C\c1scc[n+]1CCc1ccccc1 [JG-269] | – | 0.26 ± 0.04 µM | 2.2 ± 0.1 µM | – | 0.18 ± 0.01 µM | – |
| CCn1c(=O)/c(=C2\Sc3cc(C(C)C)ccc3N2C)s/c1=C\c1scc[n+]1Cc1ccsc1C(=O)OC [JG-327] | – | 0.17 ± 0.02 µM | 0.7 ± 0.03 µM | – | 0.15 ± 0.02 µM | – |
| CCn1c(=O)/c(=C2\Sc3cc(OC)ccc3N2C)s/c1=C\c1scc[n+]1C(C)c1ccccc1 (stereo not drawn) [JG-322] | – | 0.15 ± 0.01 µM | 1.7 ± 0.1 µM | – | 0.14 ± 0.01 µM | – |
| CCn1c(=O)/c(=C2\Sc3cc(Cl)ccc3N2C)s/c1=C\c1scc[n+]1Cc1c(C)cccc1C [JG-333] | – | 0.19 ± 0.02 µM | 1.1 ± 0.1 µM | – | 0.35 ± 0.04 µM | – |
| CN1/C(=c2\s/c(=C\c3scc[n+]3Cc3ccccc3)n(C)c2=O)Sc2cc(F)cc(F)c21 [JG-282] | – | 0.26 ± 0.03 µM | 2.5 ± 0.1 µM | – | 0.29 ± 0.04 µM | – |
| CCn1c(=O)/c(=C2\Sc3cc(Cl)ccc3N2C)s/c1=C\c1scc[n+]1CCc1cccc(C(F)(F)F)c1 [JG-383] | – | 0.74 ± 0.08 µM | 2.3 ± 0.2 µM | – | 0.78 ± 0.06 µM | – |
| CCc1ccc2c(c1)S/C(=c1/s/c(=C\c3scc[n+]3Cc3ccccc3OC(F)(F)F)n(CC)c1=O)N2C [JG-297] | – | 0.097 ± 0.006 µM | 0.41 ± 0.01 µM | – | 0.08 ± 0.005 µM | – |
| CCn1c(=O)/c(=C2\Sc3cc(C)ccc3N2C)s/c1=C\c1scc[n+]1Cc1ccccc1OC [JG-375] | 0.071 ± 0.006 µM | – | – | 0.082 ± 0.01 µM | – | 0.96 ± 0.03 µM |
| CCn1c(=O)/c(=C2\Sc3cc(OC)ccc3N2C)s/c1=C\c1scc[n+]1Cc1c(C)cccc1C [JG-349] | – | 0.23 ± 0.01 µM | 1.1 ± 0.1 µM | – | 0.12 ± 0.01 µM | – |
| CCn1c(=O)/c(=C2\Sc3cc(C)ccc3N2C)s/c1=C\c1scc[n+]1Cc1ccccc1C(F)(F)F [JG-285] | – | 0.062 ± 0.01 µM | 0.66 ± 0.06 µM | – | 0.078 ± 0.003 µM | – |
